Laboratory results reported in patent US12291516B2, “Substituted 1-amino-1H-imidazole-5-carboxamide as Bruton's tyrosine kinase inhibitors” (Henan Zhiwei Biomedicine Co., Ltd., priority 2019, dated 2025).

Key:
BTK [1] = molecular target: T1, BTK (Homo sapiens (Human), UniProt Q06187); test: BTK inhibition assay by Reaction Biology Corporation (33P-ATP, filter-binding); assay type: biochemical; settings: footnote a: from Reaction Biology Corporation
Description: (§1) BTK inhibition Assay and selectivity Assay The assay was conducted either a by a third party (Reaction Biology Corporation, PA, USA) or in house.
a) Reagent and Procedure by Reaction Biology Corporation:
Base Reaction buffer; 20 mM Hepes (pH 7.5), 10 mM MgCl2, 1 mM EGTA, 0.02%. Brij35, 0.02 mg/ml BSA, 0.1 mM Na3VO4, 2 mM DTT, 1% DMSO. Required cofactors were added individually to each kinase reaction. Compound handling: testing compounds were dissolved in 100% DMSO to specific concentration. The serial dilution was conducted by Integra Viaflo Assist in DMSO.
The substrate was prepared in freshly prepared reaction buffer of above and required cofactors were added to the substrate solution. The kinase was delivered to the substrate solution and the mixture was gently mixed. Testing compounds in 100% DMSO was added to the kinase reaction mixture by Acoustic technology (Echo550; nanoliter range) and the new mixture was incubated for 20 min at room temperature. Then ^33P-ATP (Specific activity 10 μCi/μl) was added to the reaction mixture to initiate the reaction and the mixture was incubated for 2 hours at room temperature. The radioactivity was detected by filter-binding method and the kinase activity data was expressed as the percent of remaining kinase activity in test sample compared to vehicle (dimethyl sulfoxide) reaction. IC50 values and curve fits were obtained using Prism (GraphPad Software). The result is outlined in Table-I

BTK [2] = molecular target: T1, BTK; test: In house ELISA kinase inhibition assay, BTK; assay type: biochemical; settings: footnote b: from in house procedure (ELISA)
Description: as §1
b) In House Procedure for BTK, BMX, EGFR and ITK:
Kinase inhibitory activities of compounds were evaluated using the Enzyme-linked immunosorbent assay (ELISA). The kinase enzyme of BTK, BMX, EGFR and ITK were purchased from Carna Bioscience (Kobe, Japan). A total of 10 ng/mL antiphosphotyrosine (PY713) antibody (abcam, Cambridge Science Park, UK) was precoated in 96-well ELISA plates. The kinase enzymes in each reaction well were set to BTK (101.25 ng/mL), BMX (90 ng/mL), EGFR (90 ng/mL) or ITK (120 ng/mL) and incubated with indicated drugs in 1× reaction buffer (50 mmol/L HEPES pH 7.4, 20 mmol/L MgCl2, 0.1 mmol/L MnCl2, 1 mmol/L DTT) containing 20 μmol/L (the final concentration of substrate in ITK reaction was 30 μmol/L) substrate (NH2-[…]-biotin) at 25° C. for 1 h. Then, a total of 3 μmol/L ATP was added and the reaction was continued for 2 h. The products of reaction were transferred into 96-well ELISA plates containing antibody and incubated at 25° C. for 30 min. After incubation, the wells were washed with PBS and then incubated with horseradish peroxidase (HRP)-conjugated streptavidin. The wells were visualized using 3,3′,5,5′-tetramethylbenzidine (TMB), and chromogenic reaction was ended with 2 mol/L H2SO4, the absorbance was read with a multimode plate reader (PerkinElmer, USA) at 450 nm. IC50 values and curve fits were obtained using Prism (GraphPad Software). (Table I-IV)

T1 sequence (Q06187 whole entry): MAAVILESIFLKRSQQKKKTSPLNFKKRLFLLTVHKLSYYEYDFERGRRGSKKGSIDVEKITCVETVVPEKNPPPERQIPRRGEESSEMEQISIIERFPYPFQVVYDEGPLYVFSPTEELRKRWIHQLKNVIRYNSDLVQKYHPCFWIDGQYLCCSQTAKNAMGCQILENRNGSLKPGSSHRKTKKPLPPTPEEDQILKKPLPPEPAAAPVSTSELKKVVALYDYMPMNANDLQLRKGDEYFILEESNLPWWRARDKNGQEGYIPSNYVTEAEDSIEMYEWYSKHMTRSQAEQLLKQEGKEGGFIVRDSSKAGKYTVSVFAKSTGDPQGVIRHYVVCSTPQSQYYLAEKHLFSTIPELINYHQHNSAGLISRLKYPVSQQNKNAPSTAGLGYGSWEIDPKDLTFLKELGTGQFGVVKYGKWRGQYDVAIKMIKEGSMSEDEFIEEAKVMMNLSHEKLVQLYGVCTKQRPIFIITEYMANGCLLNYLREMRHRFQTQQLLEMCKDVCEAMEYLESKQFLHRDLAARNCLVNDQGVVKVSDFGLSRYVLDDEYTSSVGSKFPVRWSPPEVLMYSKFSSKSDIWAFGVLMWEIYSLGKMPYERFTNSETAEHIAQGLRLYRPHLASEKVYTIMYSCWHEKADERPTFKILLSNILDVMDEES

| Structure (SMILES) | IC50 (BTK [1]) | IC50 (BTK [2]) |
| --- | --- | --- |
| C#CC(=O)N1CCC[C@H]1c1nc(-c2ccc(C(=O)Nc3ccccn3)cc2)c(C(N)=O)n1N [Example 7, (S)-1-amino-2-(1-propioloylpyrrolidin-2-yl)-4-(4-(pyridin-2-ylcarbamoyl)phenyl)-1H-imidazole-5-carboxamide] | 85 nM |  |
| N#CN1CCC[C@H]1c1nc(-c2ccc(C(=O)Nc3ccccn3)cc2)c(C(N)=O)n1N [Example 9, (S)-1-amino-2-(1-cyanopyrrolidin-2-yl)-4-(4-(pyridin-2-ylcarbamoyl)phenyl)-1H-imidazole-5-carboxamide] | 5920 nM |  |
| CCc1ccnc(NC(=O)c2ccc(-c3nc([C@@H]4CCCN4C(=O)C=C(C)C)n(N)c3C(N)=O)cc2)c1 [Example 37, (S)-1-amino-4-(4-((4-ethylpyridin-2-yl)carbamoyl)phenyl)-2-(1-(3-methylbut-2-enoyl)pyrrolidin-2-yl)-1H-imidazole-5-carboxamide] | 2210 nM |  |
| CCc1ccnc(NC(=O)c2ccc(-c3nc([C@@H]4CCCCN4C(=O)/C(C#N)=C/C4CC4)n(N)c3C(N)=O)cc2)c1 [Example 78, (S,E)-1-amino-2-(1-(2-cyano-3-cyclopropylacryloyl)piperidin-2-yl)-4-(4-((4-ethylpyridin-2-yl)carbamoyl)phenyl)-1H-imidazole-5-carboxamide] |  | 6560 nM |
| CCc1ccnc(NC(=O)c2ccc(-c3nc([C@@H]4CCCCN4C(=O)/C(C#N)=C/C(C)C)n(N)c3C(N)=O)cc2)c1 [Example 79, (S,E)-1-amino-2-(1-(2-cyano-4-methylpent-2-enoyl)piperidin-2-yl)-4-(4-((4-ethylpyridin-2-yl)carbamoyl)phenyl)-1H-imidazole-5-carboxamide] |  | 1720 nM |
| C=CC(=O)N1CCCCCC1c1nc(-c2ccc(C(=O)Nc3cc(CC)ccn3)cc2)c(C(N)=O)n1N (stereo not shown) [Example 94, 2-(1-acryloylazepan-2-yl)-1-amino-4-(4-((4-ethylpyridin-2-yl)carbamoyl)phenyl)-1H-imidazole-5-carboxamide] |  | 226 nM |
| C=CC(=O)N1CC2(CC(c3nc(-c4ccc(C(=O)Nc5cc(CC)ccn5)cc4)c(C(N)=O)n3N)C2)C1 [Example 95, 2-(2-acryloyl-2-azaspiro[3.3]heptan-6-yl)-1-amino-4-(4-((4-ethylpyridin-2-yl)carbamoyl)phenyl)-1H-imidazole-5-carboxamide] |  | 85.6 nM |
| C=CC(=O)N1CCCC[C@H]1c1nc(-c2ccc(C(=O)Nc3cccnn3)cc2)c(C(N)=O)n1N [Example 101, (S)-2-(1-acryloylpiperidin-2-yl)-1-amino-4-(4-(pyridazin-3-ylcarbamoyl)phenyl)-1H-imidazole-5-carboxamide] |  | 211 nM |
| C=CC(=O)N1CCC(Cc2nc(-c3ccc(C(=O)Nc4ccccn4)cc3)c(C(N)=O)n2N)CC1 [Example 103, 2-((1-acryloylpiperidin-4-yl)methyl)-1-amino-4-(4-(pyridin-2-ylcarbamoyl)phenyl)-1H-imidazole-5-carboxamide] |  | 176 nM |
| CC#CC(=O)N1CCC(Cc2nc(-c3ccc(C(=O)Nc4ccccn4)cc3)c(C(N)=O)n2N)CC1 [Example 104, 1-amino-2-((1-(but-2-ynoyl)piperidin-4-yl)methyl)-4-(4-(pyridin-2-ylcarbamoyl)phenyl)-1H-imidazole-5-carboxamide] |  | 459 nM |
| C=CC(=O)N1CCCC[C@H]1c1nc(-c2ccc(C(=O)Nc3cc(-c4ccc(Cl)cc4)ccn3)cc2)c(C(N)=O)n1N [Example 109, (S)-2-(1-acryloylpiperidin-2-yl)-1-amino-4-(4-((4-(4-chlorophenyl)pyridin-2-yl)carbamoyl)phenyl)-1H-imidazole-5-carboxamide] |  | 1.9 nM |
| C=CC(=O)N1CCCC[C@H]1c1nc(-c2ccc(C(=O)Nc3cc(-c4ccc(C#N)cc4)ccn3)cc2)c(C(N)=O)n1N [Example 111, (S)-2-(1-acryloylpiperidin-2-yl)-1-amino-4-(4-((4-(4-cyanophenyl)pyridin-2-yl)carbamoyl)phenyl)-1H-imidazole-5-carboxamide] |  | 10.6 nM |

More lines, now with the values ahead:

| IC50 (BTK [1]) | IC50 (BTK [2]) | Structure (SMILES) |
| --- | --- | --- |
| 13.5 nM |  | C#CC(=O)N1CCC[C@H]1c1nc(-c2ccc(C(=O)Nc3cc(OC)ccn3)cc2)c(C(N)=O)n1N [Example 33, (S)-1-amino-4-(4-((4-methoxypyridin-2-yl)carbamoyl)phenyl)-2-(1-propioloylpyrrolidin-2-yl)-1H-imidazole-5-carboxamide] |
|  | 17.9 nM | CC#CC(=O)N1CCCC[C@H]1c1nc(-c2ccc(C(=O)Nc3cc(CC)ccn3)cc2)c(C(N)=O)n1N [Example 77, (S)-1-amino-2-(1-(but-2-ynoyl)piperidin-2-yl)-4-(4-((4-ethylpyridin-2-yl)carbamoyl)phenyl)-1H-imidazole-5-carboxamide] |
|  | 45.6 nM | CC#CC(=O)N1CCCC[C@H]1c1nc(-c2ccc(C(=O)Nc3cc(C#N)ccn3)cc2)c(C(N)=O)n1N [Example 82, (S)-1-amino-2-(1-(but-2-ynoyl)piperidin-2-yl)-4-(4-((4-cyanopyridin-2-yl)carbamoyl)phenyl)-1H-imidazole-5-carboxamide] |
|  | 19.2 nM | C#CC(=O)N1CCCC[C@H]1c1nc(-c2ccc(C(=O)Nc3cc(C)ccn3)cc2)c(C(N)=O)n1N [Example 96, (S)-1-amino-4-(4-((4-methylpyridin-2-yl)carbamoyl)phenyl)-2-(1-propioloylpiperidin-2-yl)-1H-imidazole-5-carboxamide] |
|  | 9.22 nM | C#CC(=O)N1CCCC[C@H]1c1nc(-c2ccc(C(=O)Nc3cc(OC)ccn3)cc2)c(C(N)=O)n1N [Example 97, (S)-1-amino-4-(4-((4-methoxypyridin-2-yl)carbamoyl)phenyl)-2-(1-propioloylpiperidin-2-yl)-1H-imidazole-5-carboxamide] |
|  | 2.78 nM | C#CC(=O)N1CCCC[C@H]1c1nc(-c2ccc(C(=O)Nc3cc(Cl)ccn3)cc2)c(C(N)=O)n1N [Example 99, (S)-1-amino-4-(4-((4-chloropyridin-2-yl)carbamoyl)phenyl)-2-(1-propioloylpiperidin-2-yl)-1H-imidazole-5-carboxamide] |
|  | 9.99 nM | C#CC(=O)N1CCCC[C@H]1c1nc(-c2ccc(C(=O)Nc3cc(CC)ccn3)cc2)c(C(N)=O)n1N [Example 100, (S)-1-amino-4-(4-((4-ethylpyridin-2-yl)carbamoyl)phenyl)-2-(1-propioloylpiperidin-2-yl)-1H-imidazole-5-carboxamide] |
|  | 2280 nM | CC#CC(=O)N1CCCC[C@H]1c1nc(-c2ccc(C(=O)Nc3cccnn3)cc2)c(C(N)=O)n1N [Example 102, (S)-1-amino-2-(1-(but-2-ynoyl)piperidin-2-yl)-4-(4-(pyridazin-3-ylcarbamoyl)phenyl)-1H-imidazole-5-carboxamide] |
|  | 15 nM | C=CC(=O)N1CCCC[C@H]1c1nc(-c2ccc(C(=O)Nc3cc(F)ccn3)cc2)c(C(N)=O)n1N [Example 106, (S)-2-(1-acryloylpiperidin-2-yl)-1-amino-4-(4-((4-fluoropyridin-2-yl)carbamoyl)phenyl)-1H-imidazole-5-carboxamide] |
|  | 44.5 nM | C=CC(=O)N1CCCC[C@H]1c1nc(-c2ccc(C(=O)Nc3cc(C)c(F)cn3)cc2)c(C(N)=O)n1N [Example 107, (S)-2-(1-acryloylpiperidin-2-yl)-1-amino-4-(4-((5-fluoro-4-methylpyridin-2-yl)carbamoyl)phenyl)-1H-imidazole-5-carboxamide] |
|  | 121 nM | CC#CC(=O)N1CCCC[C@H]1c1nc(-c2ccc(C(=O)Nc3cc(C)c(F)cn3)cc2)c(C(N)=O)n1N [Example 108, (S)-1-amino-2-(1-(but-2-ynoyl)piperidin-2-yl)-4-(4-((5-fluoro-4-methylpyridin-2-yl)carbamoyl)phenyl)-1H-imidazole-5-carboxamide] |
|  | 14.8 nM | CC#CC(=O)N1CCCC[C@H]1c1nc(-c2ccc(C(=O)Nc3cc(-c4ccc(Cl)cc4)ccn3)cc2)c(C(N)=O)n1N [Example 110, (S)-1-amino-2-(1-(but-2-ynoyl)piperidin-2-yl)-4-(4-((4-(4-chlorophenyl)pyridin-2-yl)carbamoyl)phenyl)-1H-imidazole-5-carboxamide] |
|  | 22.8 nM | CC#CC(=O)N1CCCC[C@H]1c1nc(-c2ccc(C(=O)Nc3cc(-c4ccc(C#N)cc4)ccn3)cc2)c(C(N)=O)n1N [Example 112, (S)-1-amino-2-(1-(but-2-ynoyl)piperidin-2-yl)-4-(4-((4-(4-cyanophenyl)pyridin-2-yl)carbamoyl)phenyl)-1H-imidazole-5-carboxamide] |
